Drawing on patent US8653096B2, “Chemokine receptor antagonists and methods of use thereof” (Millennium Pharmaceuticals, Inc., priority 2001, dated 2014), this text covers IC50 for 25 compounds.

For the first assay, the target named is T1, RANTES/MIP-1α chemokine receptor (CCR1) in THP-1 cell membranes (Homo sapiens, UniProt P32246).
T1 construct: Membranes were prepared from THP-1 cells (ATCC #TIB202); host or cells: THP-1 cells (membrane preparation)
T1 sequence (P32246 1-355): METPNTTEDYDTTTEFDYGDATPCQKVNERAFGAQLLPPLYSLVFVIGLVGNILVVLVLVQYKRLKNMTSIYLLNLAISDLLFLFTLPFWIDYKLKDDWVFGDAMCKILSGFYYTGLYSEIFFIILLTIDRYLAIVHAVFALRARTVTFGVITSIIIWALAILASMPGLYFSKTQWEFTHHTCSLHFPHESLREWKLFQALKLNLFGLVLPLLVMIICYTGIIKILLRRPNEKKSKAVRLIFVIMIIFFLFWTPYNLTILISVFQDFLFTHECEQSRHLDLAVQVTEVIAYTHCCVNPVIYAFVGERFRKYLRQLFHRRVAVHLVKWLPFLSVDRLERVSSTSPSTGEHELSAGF
Put plainly: Receptor binding assay: 125I-RANTES or 125I-MIP-1α binding to THP-1 cell membranes.
Conditions: not given
In general, IC50 refers to the concentration that gives 50% inhibition. `CC(C)NC(=O)Oc1ccc2c(c1)C(=CCCN1CCC(O)(c3ccc(Cl)cc3)C(C)(C)C1)c1cccnc1CO2` (stereo not shown) [Example 547, Isopropyl-carbamic acid 5-{3-[4-(4-chloro-phenyl)-4-hydroxy-3,3-dimethyl-piperidin-1-yl]-propylidene}-5,11-dihydro-10-oxa-1-aza-dibenzo[a,d]cyclohepten-7-yl ester] registered an IC50 of less than 1000 nM.

Still in this assay, the particulars now being: inhibitor concentration required for 50% inhibition of specific binding; 125I-RANTES or 125I-MIP-1α as ligand, THP-1 cell membranes; read-out: IC50.
On to `COC(=O)CN(Cc1ccc(Cl)cc1)C1CCN(CCC=C2c3cc(C(C)(C)O)ccc3OCc3ncccc32)C1` (stereo not shown) [Example 536, [(4-Chloro-benzyl)-(1-{3-[7-(1-hydroxy-1-methyl-ethyl)-11H-10-oxa-1-aza-dibenzo[a,d]cyclohepten-5-ylidene]-propyl}-pyrrolidin-3-yl)-amino]-acetic acid methyl ester], for which the IC50 is less than 1000 nM.

In the case of `CC(C)(O)c1ccc2c(c1)C(=CCCN1CCC(N(CC(=O)O)Cc3ccc(Cl)cc3)C1)c1cccnc1CO2` (stereo not shown) [Example 537, [(4-Chloro-benzyl)-(1-{3-[7-(1-hydroxy-1-methyl-ethyl)-11H-10-oxa-1-aza-dibenzo[a,d]cyclohepten-5-ylidene]-propyl}-pyrrolidin-3-yl)-amino]-acetic acid], the IC50 is less than 1000 nM. Turning to `CC(C)(O)c1ccc2c(c1)C(=CCCN1CCN(c3ccc(Cl)c(Cl)c3)CC1)c1cccnc1CO2` [Example 538, 2-(5-{3-[4-(3,4-Dichloro-phenyl)-piperazin-1-yl]-propylidene}-5,11-dihydro-10-oxa-1-aza-dibenzo[a,d]cyclohepten-7-yl)-propan-2-ol], the 50% inhibitory concentration (IC50) is less than 10000 nM. For the compound `Cc1cc(Cl)ccc1N1CCN(CCC=C2c3cc(C(C)(C)O)ccc3OCc3ncccc32)CC1` [Example 539, 2-(5-{3-[4-(4-Chloro-2-methyl-phenyl)-piperazin-1-yl]-propylidene}-5,11-dihydro-10-oxa-1-aza-dibenzo[a,d]cyclohepten-7-yl)-propan-2-ol], the half-maximal inhibitory concentration (IC50) was less than 10000 nM. Take `CC(C)(O)c1ccc2c(c1)C(=CCCN1CCN(c3ccc(Cl)cc3C#N)CC1)c1cccnc1CO2` [Example 540, 5-Chloro-2-(4-{3-[7-(1-hydroxy-1-methyl-ethyl)-11H-10-oxa-1-aza-dibenzo[a,d]cyclohepten-5-ylidene]-propyl}-piperazin-1-yl)-benzonitrile]: the concentration for half-maximal inhibition (IC50) was less than 10000 nM. For `COC(=O)c1cc(Cl)ccc1N1CCN(CCC=C2c3cc(C(C)(C)O)ccc3OCc3ncccc32)CC1` [Example 541, 5-Chloro-2-(4-{3-[7-(1-hydroxy-1-methyl-ethyl)-11H-10-oxa-1-aza-dibenzo[a,d]cyclohepten-5-ylidene]-propyl}-piperazin-1-yl)-benzoic acid methyl ester], the IC50 is less than 10000 nM.

`CC(C)(O)c1ccc2c(c1)C(=CCCN1CCC(NC(=O)Cc3ccc(Cl)cc3)CC1)c1cccnc1CO2` [Example 542, 2-(4-Chloro-phenyl)-N-(1-{3-[7-(1-hydroxy-1-methyl-ethyl)-11H-10-oxa-1-azadibenzo[a,d]cyclohepten-5-ylidene]-propyl}-piperidin-4-yl)-acetamide]: the IC50 was less than 10000 nM.

Regarding `CCN(CCC=C1c2cc(C(C)(C)O)ccc2OCc2ncccc21)CCN(CC)c1ccc(Cl)cc1` [Example 543, 2-{5-[3-({2-[(4-Chloro-phenyl)-ethyl-amino]-ethyl}-ethyl-amino)-propylidene]-5,11-dihydro-10-oxa-1-aza-dibenzo[a,d]cyclohepten-7-yl}-propan-2-ol], the half-inhibitory concentration (IC50) was less than 10000 nM. Turning to `CC(C)(O)c1ccc2c(c1)C(=CCCN1CCN(c3ccc(Cl)cc3)C(C(N)=O)C1)c1cccnc1CO2` (stereo not shown) [Example 544, 1-(4-Chloro-phenyl)-4-{3-[7-(1-hydroxy-1-methyl-ethyl)-11H-10-oxa-1-aza-dibenzo[a,d]cyclohepten-5-ylidene]-propyl}-piperazine-2-carboxylic acid amide], the 50% inhibitory concentration (IC50) was less than 10000 nM. Turning to `CC(C)(O)c1ccc2c(c1)C(=CCCN1CCN(c3ccc(Cl)cc3)C(C#N)C1)c1cccnc1CO2` (stereo not shown) [Example 545, 1-(4-Chloro-phenyl)-4-{3-[7-(1-hydroxy-1-methyl-ethyl)-11H-10-oxa-1-aza-dibenzo[a,d]cyclohepten-5-ylidene]-propyl}-piperazine-2-carbonitrile], the IC50 was less than 10000 nM. Take `COC(=O)C1CN(CCC=C2c3cc(C(C)(C)O)ccc3OCc3ncccc32)CCN1c1ccc(Cl)cc1` (stereo not shown) [Example 546, 1-(4-Chloro-phenyl)-4-{3-[7-(1-hydroxy-1-methyl-ethyl)-11H-10-oxa-1-aza-dibenzo[a,d]cyclohepten-5-ylidene]-propyl}-piperazine-2-carboxylic acid methyl ester]: the IC50 was less than 1000 nM.

Consider `CCN(C(=O)Nc1ccc(Cl)cc1)C1CCN(CCC=C2c3cc(C(C)(C)O)ccc3OCc3ncccc32)C1` (stereo not shown) [Example 548, 3-(4-Chloro-phenyl)-1-ethyl-1-(1-{3-[7-(1-hydroxy-1-methyl-ethyl)-11H-10-oxa-1-aza-dibenzo[a,d]cyclohepten-5-ylidene]-propyl}-pyrrolidin-3-yl)-urea], for which the IC50 was less than 10000 nM. With `CC(C)(O)c1ccc2c(c1)C(=CCCN1CCC(OCc3ccc(Cl)cc3)C1)c1cccnc1CO2` (stereo not shown) [Example 549, 2-(5-{3-[3-(4-Chloro-benzyloxy)-pyrrolidin-1-yl]-propylidene}-5,11-dihydro-10-oxa-1-aza-dibenzo[a,d]cyclohepten-7-yl)-propan-2-ol], the concentration for half-maximal inhibition (IC50) was less than 1000 nM.

`CC(C)CN(Cc1ccc(Cl)cc1)C1CCN(CCC=C2c3cc(C(C)(C)O)ccc3OCc3ncccc32)C1` (stereo not shown) [Example 550, 2-[5-(3-{3-[(4-Chloro-benzyl)-isobutyl-amino]-pyrrolidin-1-yl}-propylidene)-5,11-dihydro-10-oxa-1-aza-dibenzo[a,d]cyclohepten-7-yl]-propan-2-ol]: the IC50 was less than 1000 nM. For `CC(C)N(Cc1ccc(Cl)cc1)C1CCN(CCC=C2c3cc(C(C)(C)O)ccc3OCc3ncccc32)C1` (stereo not shown) [Example 551, 2-[5-(3-{3-[(4-Chloro-benzyl)-isopropyl-amino]-pyrrolidin-1-yl}-propylidene)-5,11-dihydro-10-oxa-1-aza-dibenzo[a,d]cyclohepten-7-yl]-propan-2-ol], the IC50 was less than 1000 nM. On the same count and under the same terms, for `CC(C)(O)c1ccc2c(c1)C(=CCCN1CCC(N(CC(N)=O)Cc3ccc(Cl)cc3)C1)c1cccnc1CO2` (stereo not shown) [Example 552, 2-[(4-Chloro-benzyl)-(1-{3-[7-(1-hydroxy-1-methyl-ethyl)-11H-10-oxa-1-azadibenzo[a,d]cyclohepten-5-ylidene]-propyl}-pyrrolidin-3-yl)-amino]-acetamide] the value was less than 1000 nM; for `CCNC(=O)CN(Cc1ccc(Cl)cc1)C1CCN(CCC=C2c3cc(C(C)(C)O)ccc3OCc3ncccc32)C1` (stereo not shown) [Example 553, 2-[(4-Chloro-benzyl)-(1-{3-[7-(1-hydroxy-1-methyl-ethyl)-11H-10-oxa-1-aza-dibenzo[a,d]cyclohepten-5-ylidene]-propyl}-pyrrolidin-3-yl)-amino]-N-ethyl-acetamide], less than 1000 nM; for `CC(C)(O)c1ccc2c(c1)C(=CCCN1CCC(N(CCO)Cc3ccc(Cl)cc3)C1)c1cccnc1CO2` (stereo not shown) [Example 554, 2-[5-(3-{3-[(4-Chloro-benzyl)-(2-hydroxy-ethyl)-amino]-pyrrolidin-1-yl}-propylidene)-5,11-dihydro-10-oxa-1-aza-dibenzo[a,d]cyclohepten-7-yl]-propan-2-ol], less than 1000 nM. With `COC(=O)CCN(Cc1ccc(Cl)cc1)C1CCN(CCC=C2c3cc(C(C)(C)O)ccc3OCc3ncccc32)C1` (stereo not shown) [Example 555, 3-[(4-Chloro-benzyl)-(1-{3-[7-(1-hydroxy-1-methyl-ethyl)-11H-10-oxa-1-aza-dibenzo[a,d]cyclohepten-5-ylidene]-propyl}-pyrrolidin-3-yl)-amino]-propionic acid methyl ester], the IC50 was less than 1000 nM.

In the case of `C[C@H]1CN(CCC=C2c3cc(C(C)(C)O)ccc3OCc3ncccc32)CCN1c1ccc(Cl)cc1` [Example 556, 2-(5-{3-[4-(4-Chloro-phenyl)-3-(S)-methyl-piperazin-1-yl]-propylidene}-5,11-dihydro-10-oxa-1-aza-dibenzo[a,d]cyclohepten-7-yl)-propan-2-ol], the IC50 was less than 1000 nM.

For `C[C@@H]1CN(CCC=C2c3cc(C(C)(C)O)ccc3OCc3ncccc32)CCN1c1ccc(Cl)cc1` [Example 557, 2-(5-{3-[4-(4-Chloro-phenyl)-3-(R)-methyl-piperazin-1-yl]-propylidene}-5,11-dihydro-10-oxa-1-aza-dibenzo[a,d]cyclohepten-7-yl)-propan-2-ol], the IC50 was less than 1000 nM.

Turning to `COC(=O)CC1CN(CCC=C2c3cc(C(C)(C)O)ccc3OCc3ncccc32)CCN1c1ccc(Cl)cc1` (stereo not shown) [Example 558, (1-(4-Chloro-phenyl)-4-{3-[7-(1-hydroxy-1-methyl-ethyl)-11H-10-oxa-1-aza-dibenzo[a,d]cyclohepten-5-ylidene]-propyl}-piperazin-2-yl)-acetic acid methyl ester], the IC50 is less than 10000 nM. On the same count and under the same terms, for `CC1(C)CN(CCC=C2c3cc(OCCN4CCOCC4)ccc3OCc3ncccc32)CCC1(O)c1ccc(Cl)cc1` (stereo not shown) [Example 559, 4-(4-Chloro-phenyl)-3,3-dimethyl-1-{3-[7-(2-morpholin-4-yl-ethoxy)-11H-10-oxa-1-aza-dibenzo[a,d]cyclohepten-5-ylidene]-propyl}-piperidin-4-ol] the value was less than 1000 nM; for `CC(=O)N(Cc1ccc(Cl)cc1)C1CCN(CCC=C2c3cc(C(C)(C)O)ccc3OCc3ncccc32)C1` (stereo not shown) [Example 561, N-(4-Chloro-benzyl)-N-(1-{3-[7-(1-hydroxy-1-methyl-ethyl)-11H-10-oxa-1-aza-dibenzo[a,d]cyclohepten-5-ylidene]-propyl}-pyrrolidin-3-yl)-acetamide], less than 10000 nM.
